The record followed here is patent publication US12448394B2, “Heterocyclic pyrazole derivatives as type III receptor tyrosine kinase inhibitors” (DEVELOPMENT CENTER FOR BIOTECHNOLOGY, priority 2019, dated 2025).

One assay concerns the target T1, FLT3 kinase (Homo sapiens, UniProt P36888).
T1 construct: purchased SignalChem
T1 sequence (P36888 27-993): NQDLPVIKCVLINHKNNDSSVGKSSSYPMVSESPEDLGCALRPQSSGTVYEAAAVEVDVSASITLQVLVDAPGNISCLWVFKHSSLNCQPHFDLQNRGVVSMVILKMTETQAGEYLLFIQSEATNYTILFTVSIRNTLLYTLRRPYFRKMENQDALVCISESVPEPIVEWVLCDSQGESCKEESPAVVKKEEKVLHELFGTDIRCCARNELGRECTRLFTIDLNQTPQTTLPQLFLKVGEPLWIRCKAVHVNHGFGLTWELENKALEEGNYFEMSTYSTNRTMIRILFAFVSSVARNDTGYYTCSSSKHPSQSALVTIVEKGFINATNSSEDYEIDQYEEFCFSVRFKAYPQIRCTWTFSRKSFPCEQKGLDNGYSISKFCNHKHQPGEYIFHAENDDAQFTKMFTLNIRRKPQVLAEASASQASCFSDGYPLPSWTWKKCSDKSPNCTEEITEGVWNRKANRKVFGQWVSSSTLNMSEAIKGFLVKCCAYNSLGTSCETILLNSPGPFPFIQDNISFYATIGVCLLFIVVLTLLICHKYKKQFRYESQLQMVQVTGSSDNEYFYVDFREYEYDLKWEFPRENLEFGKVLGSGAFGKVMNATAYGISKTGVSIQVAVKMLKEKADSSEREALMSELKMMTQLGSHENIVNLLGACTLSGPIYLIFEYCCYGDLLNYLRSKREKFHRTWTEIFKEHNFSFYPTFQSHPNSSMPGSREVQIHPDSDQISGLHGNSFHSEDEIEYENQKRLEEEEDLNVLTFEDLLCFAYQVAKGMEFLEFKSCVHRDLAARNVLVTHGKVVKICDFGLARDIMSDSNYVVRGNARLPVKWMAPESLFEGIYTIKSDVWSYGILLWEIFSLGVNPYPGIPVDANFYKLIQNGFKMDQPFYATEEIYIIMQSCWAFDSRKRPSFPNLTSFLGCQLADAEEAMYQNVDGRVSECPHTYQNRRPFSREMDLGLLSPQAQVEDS
As to the kind of experiment: FLT3 kinase assay (AlphaScreen). Format: biochemical. The note with it: read-out: Ranking of IC50 values, FLT3. The gist of the method: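 Recombinant FLT3 (1.5 ng) phosphorylated biotinylated poly(Glu4:Tyr1) with 10 μM ATP in MOPS pH 7.0 buffer containing 10 mM MgCl2, 30 min at 30 °C, stopped with EDTA. Product detected by AlphaScreen; IC50 from duplicate serial dilutions.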
(In general: Bead proximity is the source of the signal in Alpha formats.)

The test system of assay [1] is MV4-11 human acute myeloid leukemia cell with FLT3-ITD mutation. As to the kind of experiment: MV4-11 cell proliferation assay (CellTiter 96). The assay is classed as cell-based. The note with it: Homo sapiens, MV4-11, 72 h, MV4-11 cells, 72 hours treatment, CellTiter96; read-out: anti-proliferation activity MV4-11 (FLT3-ITD), IC50 ranking. The gist of the method: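 Cells seeded at 6500/well in IMDM with 10% heat-inactivated FBS, left overnight at 37 °C, 5% CO2, then exposed to increasing compound concentrations for 72 h. Viability read as absorbance at 490 nm after 2–4 h with CellTiter96 AQueous One reagent.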

For assay [2], the system named is Molm-14 human acute myeloid leukemia cell with FLT3-ITD mutation. As to the kind of experiment: Molm-14 cell proliferation assay (CellTiter 96). Format: cell-based. The note with it: Homo sapiens; Molm-14 cells, 72 hours treatment, CellTiter96; read-out: anti-proliferation activity Molm-14 (FLT3-ITD), IC50 ranking. The gist of the method: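 Molm-14 (FLT3-ITD AML) cells in RPMI 1640 with 10% heat-inactivated FBS were seeded at 25000 cells/well, incubated overnight at 37° C, 5% CO2, then treated with increasing compound concentrations for 72 hours. Viability was read as absorbance at 490 nm after 2˜4 hours with CellTiter96 AQueous One reagent.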

Assay [3] deals with THP-1 human acute monocytic leukemia cell with NRAS G12D mutation. As to the kind of experiment: THP-1 cell proliferation assay (counter screen). Format: cell-based. The conditions noted are these: Homo sapiens, THP-1 cells, 72 hours treatment, CellTiter96, read-out: anti-proliferation activity THP-1 NRAS N12D, IC50 ranking. The gist of the method: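 THP-1 cells (NRAS G12D, growth independent of class III RTK signaling) seeded at 5000 cells/well overnight, then exposed to increasing compound concentrations for 72 h at 37° C, 5% CO2. Viability read by CellTiter96 AQueous One reagent (2–4 h) as absorbance at 490 nm.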

pIC50: −log10 of the molar value. A value given as a limit tells only on which side of the number the result lay.

For the compound `COc1cc(-c2cc3c(s2)Cc2c(-c4ccc5cnn(C)c5c4)n[nH]c2-3)ccc1C(=O)N1CCOCC1` [Compound 43, (2-methoxy-4-(3-(1-methyl-1H-indazol-6-yl)-1,4-dihydrothieno [2′,3′:4,5]cyclopenta [1,2-c]pyrazol-6-yl)phenyl)(morpholino) methanone], the pIC50 on FLT3 kinase is 8.00 to 9.00; in assay [1] it was 7.00 to 7.52; in assay [2] it was 7.00 to 7.52; in assay [3], less than 5.00.

Take `Cn1ncc2ccc(-c3n[nH]c4c3Cc3sc(-c5ccc(CN6CCCCC6=O)cc5)cc3-4)cc21` [Compound 61, 1-(4-(3-(l-methyl-1H-indazol-6-yl)-1,4-dihydro-thieno[2′,3′:4,5]cyclopenta [1,2-c]pyrazol-6-yl)benzyl)piperidin-2-one]: the pIC50 on FLT3 kinase was 8.00 to 9.00; in assay [1] it was greater than 7.52; in assay [2], greater than 7.52; in assay [3] it was less than 5.00.

`Cn1ncc2ccc(-c3n[nH]c4c3Cc3sc(-c5ccc(CN6CCCC6=O)cc5)cc3-4)cc21` [Compound 64, 1-(4-(3-(1-methyl-1H-indazol-6-yl)-1,4-dihydro-thieno[2′,3′:4,5]cyclopenta [1,2-c]pyrazol-6-yl)benzyl)pyrrolidin-2-one]: the pIC50 on FLT3 kinase is 8.00 to 9.00; in assay [1], greater than 7.52; in assay [2], greater than 7.52; in assay [3] it was less than 5.00.

With `CC(C)Cn1ncc2ccc(-c3n[nH]c4c3Cc3sc(-c5ccc(CN6CCOCC6)cc5)cc3-4)cc21` [Compound 35, 4-(4-(3-(1-isobutyl-1H-indazol-6-yl)-1,4-dihydro-thieno[2′,3′:4,5]cyclopenta [1,2-c]pyrazol-6-yl)benzyl)morpholine], the pIC50 is 8.00 to 9.00 on FLT3 kinase, 6.52 to 7.00 in assay [1], 6.52 to 7.00 in assay [2] and 5.00 to 6.00 in assay [3].

As for `Cn1ncc2ccc(-c3n[nH]c4c3Cc3sc(-c5ccc(C(=O)N6CCOCC6)c(F)c5)cc3-4)cc21` [Compound 44, (2-fluoro-4-(3-(1-methyl-1H-indazol-6-yl)-1,4-dihydrothieno[2′,3′:4,5]cyclopenta[1,2-c]pyrazol-6-yl)phenyl)(morpholino) methanone], the pIC50 at FLT3 kinase was greater than 9.00; in assay [1] it was greater than 7.52; in assay [2] it was greater than 7.52; in assay [3], less than 5.00.

Consider `c1cc(CN2CCOCC2)ncc1-c1cc2c(s1)Cc1c(-c3ccc4cn[nH]c4c3)n[nH]c1-2` [Compound 18, 4-((5-(3-(1H-indazol-6-yl)-1,4-dihydrothieno[2′,3′:4,5]cyclopenta[1,2-c]pyrazol-6-yl)pyridin-2-yl)methyl) morpholine], for which the pIC50 on FLT3 kinase was greater than 9.00; in assay [1], greater than 7.52; in assay [2] it was greater than 7.52; in assay [3], less than 5.00.

As for `Cn1ncc2ccc(-c3n[nH]c4c3Cc3sc(-c5ccc(CN6CC7(COC7)C6)cc5)cc3-4)cc21` [Compound 102, 6-(4-(3-(1-methyl-1H-indazol-6-yl)-1,4-dihydro-thieno[2′,3′:4,5]cyclopenta [1,2-c]pyrazol-6-yl)benzyl)-2-oxa-6-azaspiro [3.3]heptane], the pIC50 was greater than 9.00 at FLT3 kinase, 7.00 to 7.52 in assay [1], greater than 7.52 in assay [2] and less than 5.00 in assay [3].

As for `Cn1ncc2ccc(-c3n[nH]c4c3Cc3sc(-c5ccc(CN6CCOCC6)cc5F)cc3-4)cc21` [Compound 32, 4-(3-fluoro-4-(3-(1-methyl-1H-indazol-6-yl)-1,4-dihydrothieno [2′,3′:4,5]cyclopenta [1,2-c]pyrazol-6-yl)benzyl)morpholine], the pIC50 was greater than 9.00 at FLT3 kinase, 7.00 to 7.52 in assay [1], 6.52 to 7.00 in assay [2] and less than 5.00 in assay [3].

For `COC1CN(Cc2ccc(-c3cc4c(s3)Cc3c(-c5ccc6cnn(C)c6c5)n[nH]c3-4)cc2)C1` [Compound 105, 6-(4-((3-methoxyazeti-din-1-yl)methyl)phenyl)-3-(1-methyl-1H-indazol-6-yl)-1,4-dihydrothieno [2′,3′:4,5]cyclopenta [1,2-c]pyrazole], the pIC50 at FLT3 kinase is greater than 9.00; in assay [1], greater than 7.52; in assay [2], greater than 7.52; in assay [3] it was less than 5.00.

`Cn1ncc2ccc(-c3n[nH]c4c3Cc3sc(-c5csc(C(=O)N6CCOCC6)n5)cc3-4)cc21` [Compound 60, (4-(3-(1-methyl-1H-indazol-6-yl)-1,4-dihydro-thieno[2′,3′:4,5]cyclopenta [1,2-c]pyrazol-6-yl)thiazol-2-yl)(morpholino) methanone]: the pIC50 on FLT3 kinase is greater than 9.00; in assay [1], greater than 7.52; in assay [2], greater than 7.52; in assay [3] it was 5.00 to 6.00.

For the compound `Cc1cc(-c2cc3c(s2)Cc2c(-c4ccc5cnn(C)c5c4)n[nH]c2-3)ccc1CN1CCOCC1` [Compound 26, 4-(2-methyl-4-(3-(1-methyl-1H-indazol-6-yl)-1,4-dihydrothieno[2′,3′:4,5]cyclopenta[1,2-c]pyrazol-6-yl)benzyl)morpholine], the pIC50 is 8.00 to 9.00 on FLT3 kinase, 6.52 to 7.00 in assay [1], 6.52 to 7.00 in assay [2] and less than 5.00 in assay [3].

Turning to `Cn1ncc2ccc(-c3n[nH]c4c3Cc3sc(-c5ccc(CN6CCOCC6=O)cc5)cc3-4)cc21` [Compound 59, 4-(4-(3-(1-methyl-1H-indazol-6-yl)-1,4-dihydro-thieno[2′,3′:4,5]cyclopenta [1,2-c]pyrazol-6-yl)benzyl)morpholin-3-one], the pIC50 on FLT3 kinase is greater than 9.00; in assay [1], greater than 7.52; in assay [2], greater than 7.52; in assay [3] it was less than 5.00.

Consider `Cn1ncc2ccc(-c3n[nH]c4c3Cc3sc(-c5ccc(CN6CCOCC6)s5)cc3-4)cc21` [Compound 51, 4-((5-(3-(1-methyl-1H-indazol-6-yl)-1,4-dihydro-thieno[2′,3′:4,5]cyclopenta [1,2-c]pyrazol-6-yl)thiophen-2-yl)methyl) morpholine], for which the pIC50 is greater than 9.00 at FLT3 kinase, greater than 7.52 in assay [1], 7.00 to 7.52 in assay [2] and less than 5.00 in assay [3].

In the case of `Cn1ncc2ccc(-c3n[nH]c4c3Cc3sc(-c5ccc(CN6CCSCC6)cc5)cc3-4)cc21` [Compound 39, 3-(1-methyl-1H-indazol-6-yl)-6-(4-(thiomorpho-linomethyl)phenyl)-1,4-dihydrothieno[2′,3′:4,5] cyclopenta[1,2-c]pyrazole], the pIC50 was 8.00 to 9.00 on FLT3 kinase, 7.00 to 7.52 in assay [1], 7.00 to 7.52 in assay [2] and less than 5.00 in assay [3].

For `Cn1ncc2ccc(-c3n[nH]c4c3Cc3sc(-c5ccc(C(=O)N6CCOCC6)nc5)cc3-4)cc21` [Compound 23, (5-(3-(1-methyl-1H-indazol-6-yl)-1,4-dihydro-thieno[2′,3′:4,5]cyclopenta [1,2-c]pyrazol-6-yl)pyridin-2-yl)(morpholino) methanone], the pIC50 at FLT3 kinase is greater than 9.00; in assay [1], greater than 7.52; in assay [2], 7.00 to 7.52; in assay [3] it was less than 5.00.

On to `Cn1ncc2ccc(-c3n[nH]c4c3Cc3sc(-c5ccc(CN6CCC6)cc5)cc3-4)cc21` [Compound 103, 6-(4-(azetidin-1-ylmethyl)phenyl)-3-(1-methyl-1H-indazol-6-yl)-1,4-dihydro-thieno[2′,3′:4,5]cyclopenta [1,2-c]pyrazole], for which the pIC50 on FLT3 kinase was greater than 9.00; in assay [1] it was greater than 7.52; in assay [2], 7.00 to 7.52; in assay [3], less than 5.00.
